# In patent publication EP0322747B1, “A brain neuron protecting agent containing a dihydropyridine compound” (priority 1987, dated 1989):
# Legend:
# Assay in all cases: Prophylactic effect on ischemic breakdown of cytoskeletal proteins, 5-minute brain ischemia-reperfusion model
# Assay type in all cases: in vivo, gerbil
# [1] = system: MAP-2
# Protocol: (§1) A gerbil was immobilized in supine position and median section was performed in the cervical region under local anesthesia. Then, the bilateral common carotid arteries were stripped off carefully not to injure the vagus and sympathetic nerves running in parallel, . Then, each common carotid artery was obstructed with a small clip and after an interval of 5, 10 or 15 minutes, the clips were removed. The animal was decapitated immediately, 4 days or 1 week after the removal of the clips, and the brain was isolated. Untreated animals served as controls and animals undergoing sham operation (involving the stripping procedure only) were also investigated. The isolated brain was sectioned under ice-cooling into the frontal cortex (upper 2/3, approximately corresponding to the 1st to the 5th layer, ∼80 mg), striatum (∼20 mg) and hippocampus (∼50 mg) and each portion was homogenized in 4 times volume of (v/w) of 0.01 M phosphate buffer (pH 7.2). Each homogenate was centrifuged at 100,000 G for 30 minutes to obtain a supernatant. Equal parts of these supernatants were subjected to SDS-polyacrylamide gel (5%) electrophoresis and the proteins, namely MAP-2 (MW: 250-260K) calspectin (MW: 230-240K) and clathrin (MW: 180K), were quantified by measuring the absorbances at 560 nm with a densitometer (CS-930, Shimazu), and the proportion of each protein to the total water-soluble protein (exactly, the integral sum of the absorbance areas) was calculated. In addition, the relative percentage to the value of the untreated control group was also calculated.
# (§2) Two series of experiments were carried out. […] One hour after the reperfusion, the animal was killed by decapitation and the brain was removed. […] One hour after the final administration (day 5), the animal was decapitated and the brain was isolated. The isolated brain was subjected to fractionation and electrophoresis as described above.
# [2] = system: calspectin; details: number of brain sites with significant effect
# Protocol: as §1, §2
# [3] = system: clathrin; details: for Total score, Clathrin: number of brain sites with significant effect
# Protocol: as §1, §2
# [4] = Left: dosed 1 hour before ischemia, killed 1 hour after ischemia, number of brain sites with significant effect
# [5] = Right: dosed 1 hour before ischemia and for 4 subsequent days, number of brain sites with significant effect
# [6] = sum of left and right (in brackets)
# [7] = Left: dosed 1 hour before ischemia, killed 1 hour after ischemia
# [8] = Right: dosed 1 hour before ischemia and for 4 subsequent days
smiles,measurement,setting,value
"COC(=O)C1=C(C)NC(C)=C(C(=O)OCCN(C)Cc2ccccc2)C1c1cccc([N+](=O)[O-])c1 (centres unmarked) [Nicardipine, nicardipine]","Total score, MAP-2",[1]; [4],2
same,"Total score, MAP-2",[1]; [5],2
same,"Total score, MAP-2",[1]; [6],4
same,"Total score, Calspectin",[2]; [7],0/0 (0)
same,"Total score, Calspectin",[2]; [8],0/0 (0)
same,"Total score, Clathrin",[3]; [7],0/0 (0)
same,"Total score, Clathrin",[3]; [8],0/0 (0)
"COCCOC(=O)C1=C(C)NC(C)=C(C(=O)OC(C)C)C1c1cccc([N+](=O)[O-])c1 (centres unmarked) [Nimodipine, nimodipine]","Total score, MAP-2",[1]; [4],2
same,"Total score, MAP-2",[1]; [5],1
same,"Total score, MAP-2",[1]; [6],3
same,"Total score, Calspectin",[2]; [7],0/0 (0)
same,"Total score, Calspectin",[2]; [8],0/0 (0)
same,Clathrin protein concentration,"[3]; Cortex, 0.01 mg/kg s.c. 1 hour before ischemia, 1 hour after ischemia",81.9± 5.5 % of normal value
same,Clathrin protein concentration,"[3]; Cortex, 0.1 mg/kg s.c. 1 hour before ischemia and once a day for 4 days, 4 days after ischemia",52.3± 9.5 % of normal value
same,Clathrin protein concentration,"[3]; Cortex, 0.1 mg/kg s.c. 1 hour before ischemia, 1 hour after ischemia",81.8± 6.3 % of normal value
same,Clathrin protein concentration,"[3]; Cortex, 1 mg/kg s.c. 1 hour before ischemia and once a day for 4 days, 4 days after ischemia",55.8± 8.5 % of normal value
same,Clathrin protein concentration,"[3]; Cortex, 1 mg/kg s.c. 1 hour before ischemia, 1 hour after ischemia",85.9± 4.0 % of normal value
same,Clathrin protein concentration,"[3]; Cortex, 10 mg/kg s.c. 1 hour before ischemia and once a day for 4 days, 4 days after ischemia",54.6± 5.7 % of normal value
same,Clathrin protein concentration,"[3]; Hippocampus, 0.01 mg/kg s.c. 1 hour before ischemia, 1 hour after ischemia",52.1± 3.3 % of normal value
same,Clathrin protein concentration,"[3]; Hippocampus, 0.1 mg/kg s.c. 1 hour before ischemia and once a day for 4 days, 4 days after ischemia",46.6± 4.2 % of normal value
same,Clathrin protein concentration,"[3]; Hippocampus, 0.1 mg/kg s.c. 1 hour before ischemia, 1 hour after ischemia",56.7± 7.1 % of normal value
same,Clathrin protein concentration,"[3]; Hippocampus, 1 mg/kg s.c. 1 hour before ischemia and once a day for 4 days, 4 days after ischemia",51.2±10.7 % of normal value
same,Clathrin protein concentration,"[3]; Hippocampus, 1 mg/kg s.c. 1 hour before ischemia, 1 hour after ischemia",61.6±12.2 % of normal value
same,Clathrin protein concentration,"[3]; Hippocampus, 10 mg/kg s.c. 1 hour before ischemia and once a day for 4 days, 4 days after ischemia",64.6±15.0 % of normal value
same,"Total score, Clathrin",[3]; [7],0/0 (0)
same,"Total score, Clathrin",[3]; [8],0/0 (0)
same,Clathrin protein concentration,"[3]; Striatum, 0.01 mg/kg s.c. 1 hour before ischemia, 1 hour after ischemia",70.5±21.1 % of normal value
same,Clathrin protein concentration,"[3]; Striatum, 0.1 mg/kg s.c. 1 hour before ischemia and once a day for 4 days, 4 days after ischemia",53.6±11.3 % of normal value
same,Clathrin protein concentration,"[3]; Striatum, 0.1 mg/kg s.c. 1 hour before ischemia, 1 hour after ischemia",68.7±11.9 % of normal value
same,Clathrin protein concentration,"[3]; Striatum, 1 mg/kg s.c. 1 hour before ischemia and once a day for 4 days, 4 days after ischemia",57.9± 5.3 % of normal value
same,Clathrin protein concentration,"[3]; Striatum, 1 mg/kg s.c. 1 hour before ischemia, 1 hour after ischemia",69.8±12.7 % of normal value
same,Clathrin protein concentration,"[3]; Striatum, 10 mg/kg s.c. 1 hour before ischemia and once a day for 4 days, 4 days after ischemia",62.0±10.2 % of normal value
